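Method: 48-hour compound exposure of cells in 96-well plates, five concentrations, linear interpolation of endpoints. TGI: total growth inhibition.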
Key:
Assay in all cases: NCI-60 cell line screen, 48 h
786-0 renal = tested on: 786-0 renal
A549 NSCLC = tested on: A549 NSCLC
ACHN renal = tested on: ACHN renal
CCRF-CEM leukemia = tested on: CCRF-CEM leukemia
COLO 205 colon = tested on: COLO 205 colon
DLD-1 colon = tested on: DLD-1 colon
DMS 114 small cell lung = tested on: DMS 114 small cell lung
DMS 273 small cell lung = tested on: DMS 273 small cell lung
EKVX NSCLC = tested on: EKVX NSCLC
HCC-2998 colon = tested on: HCC-2998 colon
HCT-116 colon = tested on: HCT-116 colon
HCT-15 colon = tested on: HCT-15 colon
HL-60(TB) leukemia = tested on: HL-60(TB) leukemia
HOP-62 NSCLC = tested on: HOP-62 NSCLC
HOP-92 NSCLC = tested on: HOP-92 NSCLC
HT29 colon = tested on: HT29 colon
IGROV1 ovarian = tested on: IGROV1 ovarian
K-562 leukemia = tested on: K-562 leukemia
KM12 colon = tested on: KM12 colon
KM20L2 colon = tested on: KM20L2 colon
LOX IMVI melanoma = tested on: LOX IMVI melanoma
LXFL 529 NSCLC = tested on: LXFL 529 NSCLC
M14 melanoma = tested on: M14 melanoma
M19-MEL melanoma = tested on: M19-MEL melanoma
MALME-3M melanoma = tested on: MALME-3M melanoma
MOLT-4 leukemia = tested on: MOLT-4 leukemia
NCI-H23 lung = tested on: NCI-H23 lung
NCI-H460 lung = tested on: NCI-H460 lung
NCI-H522 lung = tested on: NCI-H522 lung
OVCAR-3 ovarian = tested on: OVCAR-3 ovarian
OVCAR-4 ovarian = tested on: OVCAR-4 ovarian
OVCAR-5 ovarian = tested on: OVCAR-5 ovarian
OVCAR-8 ovarian = tested on: OVCAR-8 ovarian
RPMI-8226 leukemia = tested on: RPMI-8226 leukemia
RXF 393 renal = tested on: RXF 393 renal
SF-268 CNS = tested on: SF-268 CNS
SF-295 CNS = tested on: SF-295 CNS
SF-539 CNS = tested on: SF-539 CNS
SK-MEL-2 melanoma = tested on: SK-MEL-2 melanoma
SK-MEL-28 melanoma = tested on: SK-MEL-28 melanoma
SK-MEL-5 melanoma = tested on: SK-MEL-5 melanoma
SN12C renal = tested on: SN12C renal
SNB-19 CNS = tested on: SNB-19 CNS
SNB-75 CNS = tested on: SNB-75 CNS
SNB-78 CNS = tested on: SNB-78 CNS
SW-620 colon = tested on: SW-620 colon
TK-10 renal = tested on: TK-10 renal
U251 CNS = tested on: U251 CNS
UACC-257 melanoma = tested on: UACC-257 melanoma
UACC-62 melanoma = tested on: UACC-62 melanoma
UO-31 renal = tested on: UO-31 renal
XF 498 CNS = tested on: XF 498 CNS
CAKI-1 renal = tested on: CAKI-1 renal
HOP-18 NSCLC = tested on: HOP-18 NSCLC
SK-OV-3 ovarian = tested on: SK-OV-3 ovarian
SR leukemia = tested on: SR leukemia
A498 renal = tested on: A498 renal
NCI-H226 lung = tested on: NCI-H226 lung
RXF-631 renal = tested on: RXF-631 renal

Measured: TGI

COC(=O)C12CC(c3ccccc31)C1C(=O)OC(=O)C12 (configuration not stated)
not listed: CAKI-1 renal | HOP-18 NSCLC | SK-OV-3 ovarian | SR leukemia | A498 renal | NCI-H226 lung | RXF-631 renal
> 100 µM: all other assays above

COC(=O)C12C(=O)O[C@H](C)C1(O)C(C)C(=O)N2C (some centres not stated)
86.2 µM: XF 498 CNS
not listed: A549 NSCLC | ACHN renal | CCRF-CEM leukemia | DMS 273 small cell lung | HL-60(TB) leukemia | HOP-92 NSCLC | KM20L2 colon | LOX IMVI melanoma | LXFL 529 NSCLC | NCI-H460 lung | NCI-H522 lung | SF-268 CNS | SN12C renal | SNB-75 CNS | SW-620 colon | UACC-257 melanoma | A498 renal | NCI-H226 lung | RXF-631 renal
> 100 µM: all other assays above

CCOC(=O)NC(=O)c1cn(CCCOC(=O)CCCCCCCCCCC(=O)OCCCn2cc(C(=O)NC(=O)OCC)c(=O)n(C)c2=O)c(=O)n(C)c1=O
not listed: KM20L2 colon | RXF-631 renal
> 100 µM: all other assays above

Cc1ccc(/C=C/C(=O)c2sc(-c3cccnc3)nc2C)cc1
not listed: DMS 114 small cell lung | HCT-116 colon | LXFL 529 NSCLC | M14 melanoma | OVCAR-4 ovarian | SF-268 CNS | SK-MEL-28 melanoma | SNB-19 CNS | SNB-75 CNS | XF 498 CNS | SR leukemia
> 100 µM: all other assays above

CC(=O)Nc1c(C)ccc2c1C(=O)c1ccccc1C2=O
not listed: EKVX NSCLC | KM20L2 colon | NCI-H23 lung | OVCAR-3 ovarian | SK-MEL-28 melanoma | SNB-19 CNS | XF 498 CNS | RXF-631 renal
> 100 µM: all other assays above

CCN(CC)CCNC(=O)c1nn(C)c(=S)[nH]c1=S
not listed: SF-268 CNS | A498 renal | RXF-631 renal
> 100 µM: all other assays above

CC1=CC(=O)C(=O)C2=C1OC1(C2)C(C)CCC2C3(C)CCC(O)C(C)(C)C3CCC21C (configuration not stated)
34.6 µM: OVCAR-3 ovarian
44.7 µM: OVCAR-8 ovarian
5.51 µM: HL-60(TB) leukemia
34.2 µM: IGROV1 ovarian
88.3 µM: RPMI-8226 leukemia
78.4 µM: MOLT-4 leukemia
37.2 µM: M14 melanoma | OVCAR-5 ovarian
35.3 µM: MALME-3M melanoma | SF-295 CNS
46.1 µM: SW-620 colon
31.9 µM: ACHN renal
34.5 µM: TK-10 renal
35 µM: HOP-62 NSCLC
36.1 µM: UACC-62 melanoma
35.1 µM: NCI-H460 lung
41.8 µM: DLD-1 colon
33.2 µM: RXF 393 renal
63 µM: SF-268 CNS
34.3 µM: UACC-257 melanoma
33.8 µM: CAKI-1 renal
54.1 µM: K-562 leukemia
31.3 µM: NCI-H23 lung
33.1 µM: HOP-92 NSCLC
33.4 µM: SK-MEL-5 melanoma
64.6 µM: SNB-78 CNS
42.9 µM: SK-MEL-28 melanoma
35.5 µM: NCI-H226 lung
42.1 µM: HCT-15 colon
34 µM: HCC-2998 colon | XF 498 CNS
29.9 µM: KM12 colon | U251 CNS
34.4 µM: M19-MEL melanoma | UO-31 renal
33.6 µM: DMS 114 small cell lung | LXFL 529 NSCLC
35.8 µM: LOX IMVI melanoma
65.2 µM: CCRF-CEM leukemia
40.1 µM: HT29 colon
30.7 µM: NCI-H522 lung
> 100 µM: A549 NSCLC | SF-539 CNS | SN12C renal | SNB-75 CNS | SR leukemia
32.6 µM: COLO 205 colon
33.3 µM: 786-0 renal
73.8 µM: SK-OV-3 ovarian
60.9 µM: DMS 273 small cell lung
37.4 µM: KM20L2 colon | OVCAR-4 ovarian
30.2 µM: HCT-116 colon
32.2 µM: SNB-19 CNS

O=C(c1ccco1)N(C(=S)N1CCN(c2ccccn2)CC1)C1CCCCC1
not listed: EKVX NSCLC | HCC-2998 colon | XF 498 CNS | A498 renal | RXF-631 renal
> 100 µM: all other assays above

Reference: PubChem BioAssay (NCI)
